Data set [1] deals with CYP3A4. The conditions noted are these: hepatocytes.
Experimental: Human CYP3A4 Induction Assay
(§1) Cryopreserved human hepatocytes were seeded in 96-well collagen coated plates at 70,000 cells per well in hepatocyte plating media (HPM, final concentrations: 1× Dulbecco's Modified Eagle's Medium, 0.1 μM dexamethasone, 10% fetal bovine serum, 1×ITS, 1×PSG) followed by incubation at 37° C. under 5% CO2 and 90% relative humidity for 2 days to allow hepatocytes to form a confluent layer. On Day 3, hepatocytes were treated with either test compound or rifampin (20 μM, positive control for CYP3A induction) prepared in hepatocyte incubation media ((HIM, final concentrations: 1× William's Medium E, 0.1 μM dexamethasone, 1×ITS, 1×PSG). Treatment was performed for 72 hours with either 2 concentrations (2 μM or 10 μM) or a range of concentrations (0.001 μM to 100 μM) of the test compound to obtain full dose-response curve. Fresh media containing the relevant concentrations of the test compound was replaced every day until the samples were processed. After 72 hours of incubation, samples were processed for mRNA analysis using bDNA technology using manufacturer's instructions (Affymetrix, Fremont, CA). Cell viability was tested at the end of the experiment using MTT assay kit (Roche Diagnostics, Basel, Switzerland). Data was analyzed and presented as percent of control (POC) and Emax and EC50 obtained when appropriate according to guidance from Center for Drug Evaluation and Research (CDER), 2006, Guidance for Industry, Drug Interaction Studies—Study Design, Data Analysis, and Implications for Dosing and Labeling.
Another data set concerns the target Human Nav1.7 (Homo sapiens (Human), UniProt Q15858). Description: IonWorks Barracuda (IWB) automated patch clamp assay. It is filed as cell-based. To be noted: human Nav1.7 in HEK cells, population patch-clamp, state- and use-dependent voltage protocol; read-out: hNaV1.7 IWB-U IC50. As for the experimental part:
IonWorks Barracuda (IWB) Automated Patch Clamp Assay (Same Protocol for Both Human and Mouse)
Human Nav1.7 currents were recorded in population patch-clamp mode with the IWB automated electrophysiology system (Molecular Devices, LLC, Sunnyvale, CA). Spiking HEK cells (without Kir2.1 transfection) were cultured and prepared for recordings as previously described for IonWorks Quattro testing^1. The external solution consisted of the following (in mM): NaCl 140, KCl 5, CaCl2 2, MgCl2 1, HEPES 10, and glucose 11, pH 7.4, with N-methyl-D-glucamine at 320 mOsmol. […] From a holding potential of −110 mV, currents were elicited by a train of 26 depolarizations of 150 ms duration to −20 mV at a frequency of 5 Hz. Cells were then clamped to −20 mV for a period of 4 minutes in the presence of a single concentration of test compound. Following this compound incubation period, cells were clamped to −110 mV for three seconds to recover unbound channels and put through the same 26 pulse voltage protocol as above. Peak inward current during the 26th pulse to −20 mV in the presence of compound was divided by the peak inward current evoked by the 26th pulse to −20 mV in the absence of compound to determine percent inhibition. Concentration-response curves of percent inhibition as a function of concentration were generated to calculate IC50 values as described in Kornecook, T. J.; Yin, R.; Altmann, S.; et al. Pharmacologic Characterization of AMG8379, a Potent and Selective Small Molecule Sulfonamide Antagonist of the Voltage-Gated Sodium Channel NaV1. 7.
The potency of the compounds of the present invention were evaluated on human Nav1.7 channels using the above described IonWorks Barracuda automated electrophysiology platform that evaluates the ability of compounds to block sodium conductance through Nav1.7 channels. A voltage-protocol that prosecutes both state-dependent as well as use-dependent inhibition was used as these modes of action are thought to be more relevant for the native state of Nav1.7 channels in pain sensing neurons in vivo.
(In general: The patch-clamp technique gives a direct electrical read-out from membranes.)

The test system of data set [2] is CYP3A4. Description: Human CYP3A4 induction assay (mRNA, cryopreserved human hepatocytes). To be noted: 10 uM test compound, 72 hours, percent of control (rifampin positive control).
Experimental: Human CYP3A4 Induction Assay
as §1

Read-outs that look alike come from different tables or passages of the source.

Sequence of Human Nav1.7 (Q15858 whole entry): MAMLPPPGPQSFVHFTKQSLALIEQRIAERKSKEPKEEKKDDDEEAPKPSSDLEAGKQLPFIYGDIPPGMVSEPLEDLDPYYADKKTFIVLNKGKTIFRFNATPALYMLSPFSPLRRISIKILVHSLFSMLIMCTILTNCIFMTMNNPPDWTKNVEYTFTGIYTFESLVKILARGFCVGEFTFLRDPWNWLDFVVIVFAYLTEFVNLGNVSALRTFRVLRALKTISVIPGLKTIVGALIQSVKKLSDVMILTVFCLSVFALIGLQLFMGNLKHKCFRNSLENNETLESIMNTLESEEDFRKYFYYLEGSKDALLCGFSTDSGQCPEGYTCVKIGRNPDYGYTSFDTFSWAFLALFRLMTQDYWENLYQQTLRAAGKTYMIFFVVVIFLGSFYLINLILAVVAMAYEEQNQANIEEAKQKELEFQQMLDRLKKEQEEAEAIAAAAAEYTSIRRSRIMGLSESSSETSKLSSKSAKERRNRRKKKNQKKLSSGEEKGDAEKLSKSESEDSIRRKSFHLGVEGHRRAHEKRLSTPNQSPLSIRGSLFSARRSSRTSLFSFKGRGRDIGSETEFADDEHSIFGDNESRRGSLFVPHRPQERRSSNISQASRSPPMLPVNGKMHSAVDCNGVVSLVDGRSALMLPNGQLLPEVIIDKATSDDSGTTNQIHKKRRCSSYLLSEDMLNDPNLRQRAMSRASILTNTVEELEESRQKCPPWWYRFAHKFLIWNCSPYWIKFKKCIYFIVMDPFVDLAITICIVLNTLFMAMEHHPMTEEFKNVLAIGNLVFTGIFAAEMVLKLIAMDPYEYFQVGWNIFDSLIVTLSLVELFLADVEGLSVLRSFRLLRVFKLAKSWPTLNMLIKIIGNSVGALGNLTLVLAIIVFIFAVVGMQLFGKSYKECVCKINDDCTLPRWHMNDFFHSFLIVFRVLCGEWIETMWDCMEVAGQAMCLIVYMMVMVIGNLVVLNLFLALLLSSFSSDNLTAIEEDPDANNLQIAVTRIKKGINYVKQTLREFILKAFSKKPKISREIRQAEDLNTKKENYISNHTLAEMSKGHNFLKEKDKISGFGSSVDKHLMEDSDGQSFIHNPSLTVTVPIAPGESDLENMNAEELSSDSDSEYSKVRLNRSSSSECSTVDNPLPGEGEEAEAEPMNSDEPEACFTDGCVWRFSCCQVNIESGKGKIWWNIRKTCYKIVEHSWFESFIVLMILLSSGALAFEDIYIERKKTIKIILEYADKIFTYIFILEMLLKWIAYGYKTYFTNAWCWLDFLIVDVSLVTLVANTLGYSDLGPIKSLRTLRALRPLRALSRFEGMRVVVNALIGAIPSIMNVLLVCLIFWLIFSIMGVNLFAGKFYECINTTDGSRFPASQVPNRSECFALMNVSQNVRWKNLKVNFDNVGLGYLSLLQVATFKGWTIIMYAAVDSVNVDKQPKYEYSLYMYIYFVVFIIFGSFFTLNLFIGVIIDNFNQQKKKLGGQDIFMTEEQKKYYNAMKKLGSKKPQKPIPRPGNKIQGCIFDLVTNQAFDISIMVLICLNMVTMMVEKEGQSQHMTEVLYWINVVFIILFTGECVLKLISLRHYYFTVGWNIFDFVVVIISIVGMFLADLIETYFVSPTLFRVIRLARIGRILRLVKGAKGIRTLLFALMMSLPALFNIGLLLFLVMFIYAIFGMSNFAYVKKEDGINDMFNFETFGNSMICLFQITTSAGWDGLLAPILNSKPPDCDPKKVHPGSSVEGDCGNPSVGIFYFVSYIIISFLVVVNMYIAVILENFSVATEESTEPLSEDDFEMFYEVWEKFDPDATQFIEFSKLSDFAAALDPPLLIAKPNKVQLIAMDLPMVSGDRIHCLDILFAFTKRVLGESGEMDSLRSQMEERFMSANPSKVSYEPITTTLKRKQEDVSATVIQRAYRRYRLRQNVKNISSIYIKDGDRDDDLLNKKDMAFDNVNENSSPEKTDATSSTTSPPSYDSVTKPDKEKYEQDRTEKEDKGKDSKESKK

With `COc1cc([C@H]2C[C@@](F)(C(F)(F)F)C2)c(F)cc1-n1c(=O)ccc2cc(S(=O)(=O)Nc3ccon3)ccc21` (atropisomer, axis not shown; (P)) [Example 8, trans-(P)-1-(5-fluoro-4-(3-fluoro-3-(trifluoromethyl)cyclobutyl)-2-methoxyphenyl)-N-(isoxazol-3-yl)-2-oxo-1,2-dihydroquinoline-6-sulfonamide], in the data set with CYP3A4 [1], the “Hu CYP3A4 mRNA Induction (10 uM POC)” value amounted to 10.51%.
Usually IC50 stands for the concentration needed to halve the response being measured. Take `COc1cc([C@H]2C[C@H](C(F)(F)F)C2)c(C)cc1-n1c(=O)ccc2cc(S(=O)(=O)Nc3ncccn3)ccc21` (atropisomer, axis not shown; (P)) [Example 37, trans-(P)-1-(2-methoxy-5-methyl-4-(3-(trifluoromethyl)cyclobutyl)phenyl)-2-oxo-N-(pyrimidin-2-yl)-1,2-dihydroquinoline-6-sulfonamide]: the IC50 on Human Nav1.7 turned out to be 62 nM.
On the same count and under the same terms, under `COc1cc(C2CC(C(C)(C)C)C2)c(F)cc1-n1c(=O)ccc2cc(S(=O)(=O)Nc3ccon3)ccc21` (racemic) [Example 2, 1-(4-(3-(tert-butyl)cyclobutyl)-5-fluoro-2-methoxyphenyl)-N-(isoxazol-3-yl)-2-oxo-1,2-dihydroquinoline-6-sulfonamide] stands 25 nM.
On to `COc1cc([C@H]2C[C@H](C(F)(F)F)C2)c(F)cc1-n1c(=O)ccc2cc(S(=O)(=O)Nc3ccon3)ccc21` (single isomer, unassigned) [Example 7, trans-(P)-1-(5-fluoro-2-methoxy-4-(3-(trifluoromethyl)cyclobutyl)phenyl)-N-(isoxazol-3-yl)-2-oxo-1,2-dihydroquinoline-6-sulfonamide], for which, in the data set with CYP3A4 [2], the “Hu CYP3A4 mRNA Induction (10 uM POC)” value stood at 16.35%. In addition, the IC50 at Human Nav1.7 came to 7 nM.
Turning to `COc1cc([C@H]2C[C@H](C(F)(F)F)C2)c(Cl)cc1-n1c(=O)ccc2cc(S(=O)(=O)Nc3ccon3)ccc21` (single isomer, unassigned) [Example 13], the “Hu CYP3A4 mRNA Induction (10 uM POC)” value with CYP3A4 [2] is on record as 46.85%. Besides, the IC50 at Human Nav1.7 was 6 nM.
With `COc1cc(C2CC(OC(F)(F)F)C2)c(F)cc1-n1c(=O)ccc2cc(S(=O)(=O)Nc3ccon3)ccc21` (single isomer, unassigned) [Example 44, cis-(P)-1-(5-fluoro-2-methoxy-4-(3-(trifluoromethoxy)cyclobutyl)phenyl)-N-(isoxazol-3-yl)-2-oxo-1,2-dihydroquinoline-6-sulfonamide], the half-maximal inhibitory concentration (IC50) at Human Nav1.7 was found to be 7 nM.

(Values after patent US12240839B2, “Cyclobutyl dihydroquinoline sulfonamide compounds” (AMGEN INC., priority 2020, dated 2025).)
